Data from patent US10220029B2, “Pharmaceutical composition comprising glutarimide derivatives and use thereof in the treatment of eosinophilic diseases” (OBSCHESTVO S ORGANICHENNOI OTVETSTVENNOSTIYU …, priority 2013, dated 2019).
Marks after values point to notes of the source that are not given here.

Tests used:
[1] = tested on: model of allergic rhinitis in guinea pigs; experiment: Content of cell elements in the nasal lavage in the model of allergic rhinitis in guinea pigs; assay type: in vivo, guinea pig; conditions: n = 8
Procedure: (§1) The model of allergic rhinitis in guinea pigs was realized by a standard method [Vishnu N. Thakare, M. M. Osama, Suresh R. Naik. […] 2013 September; 17(1):18-25].
(§2) Guinea pigs (250-300 g) were immunized with 4-time (on days 0, 7, 14, and 21) intragastric administration of ovalbumin (100 μg/pig) and aluminium hydroxide (5 mg/pig), both of which were diluted and suspended in a physiological saline solution. […], a solution of ovalbumin (60 mg/mL) was administered intranasally to each nostril of the animals at a dose 20 μL. On day 35, the animals received subcutaneously an ovalbumin solution (200 μg/mL, 25 μL); the animal back was previously shaved in the site of administration. Swelling and redness at the injection site served as a support of sensibilisation. On day 42 of the study, an ovalbumin solution (60 mg/mL, 20 μL/nostril) was administered intranasally. A group of pseudoimmunized animals was formed to control the formation of exactly allergic inflammation: on days 0, 7, 14, and 21, the pigs received a solution of aluminium hydroxide (5 mg/pig), and on days 28 and 35, they received a physiological saline solution, and on day 42, a solution of ovalbumin (60 mg/mL, 20 μL/nostril).
(§3) The studied compounds (14 mg/kg) were administered 3 times by the intragastric route: 48, 24, and 1 hour before the last administration of ovalbumin. The reference preparation, dexamethasone, was administered one time by the intragastric route, 3 hours before the last intranasal administration of ovalbumin.
(§4) Clinical manifestations, such as the number of sneezes and nose scratchings, were registered for 2 hours after the last administration of ovalbumin. Nasal lavage was taken 24 hours after the last administration of ovalbumin, and in this lavage, the total lymphocyte count and leukocyte formula were determined. The number of guinea pigs in a group was 8.

[2] = tested on: model of bronchial asthma in guinea pigs; experiment: Content of cell elements in BAL in the model of bronchial asthma in guinea pigs; assay type: in vivo, guinea pig; conditions: Table 4; 14 mg/kg, 10 times of administration; n = 9
Procedure: Bronchial asthma in guinea pigs was induced by a standard method [Ricciardolo F L, Nijkamp F, De Rose V, Folkerts G. The guinea pig as an animal model for asthma// Current Drug Targets. 2008 June; 9(6):452-65]. The animals were immunized by one parenteral administration of 0.5 mL of a solution comprising 100 μg/mL ovalbumin (Sigma) and 100 mg/mL aluminium hydroxide. Intact animals received a physiological saline solution in an amount of 0.5 mL.
On days 29, 30 and 31, hyperactivity of the respiratory airways was provoked by inhalation administration of ovalbumin in ascending concentrations of 0.1, 0.3, and 0.5 mg/mL on days 1, 2, and 3 of the provocation, respectively. The inhalation lasted 5 minutes or until asphyxia symptoms became apparent (fall to one side). On day 32, the animals received a challenging dose of ovalbumin (1 mg/mL) for 5 minutes, while assessing a bronchospastic reaction.
The studied compounds were administered to the animals once daily every day for 6 or 10 days; the administration was terminated two days before the administration of the challenging dose of antigen.
The bronchoalveolar lavage (BAL) and cardiac cavity blood were derived from the animals 24 hours after administration of the challenging dose. The BAL was collected under anesthesia by lavaging the lungs with 5 mL of a physiological saline solution heated to 37° C. through the trachea, using a syringe dosing device.
The absolute number of cell elements in 1 μL of the lavage (cytosis) was counted in the bronchoalveolar lavage, using the Goryaev camera. Then, the BAL was centrifuged at 200 g for 10 minutes. The residue was used to prepare swabs that were fixed in methanol and stained according to Romanovsky-Giemsa to count endopulmonary cytogram.
The study comprised 3 experiments, wherein the first one was directed to the evaluation of the effect of claimed compounds 1-6 on the cell composition of the BAL, the second and the third experiments were aimed at evaluating the effect of compounds 1 and 2 on the cell composition of the BAL, the cell composition of the blood, and on the bronchospasm severity.

[3] = tested on: model of allergic rhinitis in guinea pigs; experiment: Clinical manifestations of allergic rhinitis in guinea pigs (sneezes, nose scratchings); assay type: in vivo, guinea pig; conditions: 2 hours after last ovalbumin, n = 8
Procedure: as §1, §2, §3, §4

[4] = tested on: model of sephadex-induced eosinophilic lung inflammation in rats; experiment: Content of cell elements in BAL in the model of sephadex-induced eosinophilic lung inflammation in rats; assay type: in vivo, male Wistar rats; conditions: Table 9, four times, BAL 48 hours after sephadex, n = 7
Procedure: The model of sephadex-induced eosinophilic lung inflammation in rats was realized by a standard method [Evaldsson C, Rydén I, Uppugunduri S. Isomaltitol exacerbates neutrophilia but reduces eosinophilia: new insights into the sephadex model of lung inflammation//Int Arch Allergy Immunol. 2011; 154(4):286-94]. Sephadex G-200 (Pharmacia, Sweden) was administered one time by inhalation to male Wistar rats at a dose of 5 mg/kg. The studied compounds were administered to the animals by the intragastric route four times: 24 hours and 1 hour before and 24 hours and 45 hours after administration of sephadex. The reference preparation, budesonide, was administered according to the same scheme, by inhalation at a dose of 0.5 mg/kg. Bronchoalveolar lavage was taken 48 hours after the inhalation of sephadex, and the total lymphocyte count and leukocyte formula in the lavage were determined. The number of rats in a group was 7 to 10.

[5] = tested on: model of atopic dermatitis in mice; experiment: Response index in DNCB-induced atopic (allopathic) dermatitis in mice; assay type: in vivo, male Balb/c mice; conditions: 10 mg/kg intragastric once daily on days 8-17 (reference preparation); n = 12
Procedure: The model of allopathic dermatitis was realized by a standard method [Mechanism of dinitrochlorobenzene-induced dermatitis in mice: role of specific antibodies in pathogenesis//PLoS One. 2009; 4(11)].
On days 0 and 12 of the study, 100 μL of a 2% solution of 1-chloro-2,4-dinitrobenzene (DNCB, Sigma-Aldrich, US) in 95% ethanol was applied to shaved sites in the backs of male Balb/c mice. On day 17 of the study, to the right “studied” ear of the animals, 20 μL of the alcohol solution of 2% DNCB was applied two times with a one-hour interval. The studied compound and the reference preparation, dexamethasone, were administered by the intragastric route once daily on days 8-17 of the study.
On day 18 of the study, the animals were euthanized in a CO2 camera. The weights of the “studied” and “control” ears were measured. A response index (RI) expressed in percentage of a difference in the weights of the “studied” and “control” ears was calculated.

[6] = 14 mg/kg intragastric, 3 times, nasal lavage 24 hours after last ovalbumin
[7] = 5 mg/kg intragastric, one time 3 hours before last ovalbumin (reference preparation)
[8] = 5 mg/kg intragastric, one time (reference preparation)

How did the “Eosinophils, content of cell elements in 1 μL of nasal lavage” value [1, 6] turn out when `Cn1cnc(CCN2C(=O)CCCC2=O)c1` [Compound 5] was run?
Its value is 575 ± 143& in 1 μL of nasal lavage.

And the “Leukocytes, content of cell elements in 1 μL of nasal lavage” value [1, 6]?
The value was 1071 ± 233& in 1 μL of nasal lavage.

What about the “Lymphocytes, content of cell elements in 1 μL of nasal lavage” value [1, 6] of the same compound?
Its value is 9 ± 7 in 1 μL of nasal lavage.

And the “Macrophages, content of cell elements in 1 μL of nasal lavage” value [1, 6]?
Its value is 198 ± 54 in 1 μL of nasal lavage.

What about the “Neutrophils, content of cell elements in 1 μL of nasal lavage” value [1, 6] of the same compound?
Its value is 344 ± 50& in 1 μL of nasal lavage.

What about the “Eosinophils in BAL” value [2] of the same compound?
Its value is 1.61 ± 0.86*& 10^9/L.

And the “Lymphocytes in BAL” value [2]?
The value was 1.35 ± 0.34* 10^9/L.

What about the “Monocytes in BAL” value [2] of the same compound?
The value was 0.84 ± 0.23* 10^9/L.

And the “Neutrophils in BAL” value [2]?
The value was 1.05 ± 0.33 10^9/L.

And the “Number of nose scratchings/2 hours” value ([3]; 14 mg/kg intragastric, 3 times)?
Its value is 19.1 ± 4.9 &.

And the “Number of sneezes/2 hours” value ([3]; 14 mg/kg intragastric, 3 times)?
The value was 7.1 ± 1.3 &.

What about the “Eosinophils, content of cell elements in 1 μL of BAL” value ([4]; 1.8 mg/kg intragastric) of the same compound?
The value was 147 ± 44& in 1 μL of BAL.

And the “Leukocytes, content of cell elements in 1 μL of BAL” value ([4]; 1.8 mg/kg intragastric)?
Its value is 2064 ± 257& in 1 μL of BAL.

What about the “Lymphocytes, content of cell elements in 1 μL of BAL” value ([4]; 1.8 mg/kg intragastric) of the same compound?
The value was 66 ± 26 in 1 μL of BAL.

What about the “Macrophages, content of cell elements in 1 μL of BAL” value ([4]; 1.8 mg/kg intragastric) of the same compound?
Its value is 1576 ± 93& in 1 μL of BAL.

What about the “Neutrophils, content of cell elements in 1 μL of BAL” value ([4]; 1.8 mg/kg intragastric) of the same compound?
Its value is 385 ± 57 in 1 μL of BAL.

And the “Eosinophils, content of cell elements in 1 μL of BAL” value ([4]; 18 mg/kg intragastric)?
Its value is 34 ± 15& in 1 μL of BAL.

What about the “Leukocytes, content of cell elements in 1 μL of BAL” value ([4]; 18 mg/kg intragastric) of the same compound?
Its value is 2189 ± 222& in 1 μL of BAL.

What about the “Lymphocytes, content of cell elements in 1 μL of BAL” value ([4]; 18 mg/kg intragastric) of the same compound?
Its value is 121 ± 48 in 1 μL of BAL.

What about the “Macrophages, content of cell elements in 1 μL of BAL” value ([4]; 18 mg/kg intragastric) of the same compound?
Its value is 1331 ± 66 & in 1 μL of BAL.

And the “Neutrophils, content of cell elements in 1 μL of BAL” value ([4]; 18 mg/kg intragastric)?
Its value is 605 ± 124 in 1 μL of BAL.

`C[C@@H]1C[C@H]2[C@@H]3CCC4=CC(=O)C=C[C@]4(C)[C@@]3(F)[C@@H](O)C[C@]2(C)[C@@]1(O)C(=O)CO` [Dexamethasone, dexamethasone, reference compound] was tested. Which “Response index (%)” value [5] did it give?
The value was 65.6 ± 8*& %.

What about the “Eosinophils, content of cell elements in 1 μL of nasal lavage” value [1, 7] of the same compound?
Its value is 365 ± 90& in 1 μL of nasal lavage.

And the “Leukocytes, content of cell elements in 1 μL of nasal lavage” value [1, 7]?
The value was 1186 ± 142& in 1 μL of nasal lavage.

What about the “Lymphocytes, content of cell elements in 1 μL of nasal lavage” value [1, 7] of the same compound?
Its value is 5 ± 3 in 1 μL of nasal lavage.

And the “Macrophages, content of cell elements in 1 μL of nasal lavage” value [1, 7]?
The value was 296 ± 71 in 1 μL of nasal lavage.

And the “Neutrophils, content of cell elements in 1 μL of nasal lavage” value [1, 7]?
The value was 328 ± 47& in 1 μL of nasal lavage.

What about the “Number of nose scratchings/2 hours” value [3, 8] of the same compound?
The value was 16.7 ± 1.8*&.

And the “Number of sneezes/2 hours” value [3, 8]?
Its value is 7.9 ± 0.8 &.
